Structures can show the parent of a compound that is named as a salt. The source made the active and inactive calls.
What was measured:
[1] = molecular target: T1, Small ubiquitin-related modifier 1 (Homo sapiens, UniProt P63165); test: inhibitors of SUMO1 peptide binding, dose response, biochemical, fluorescence polarization, uHTS hits (AID 624382); assay type: functional; settings: read-out: IC50_Mean
[2] = molecular target: T1, Small ubiquitin-related modifier 1; test: inhibitors of SUMO1 partner interactions, dose response, biochemical, FRET (AID 624383); assay type: functional; settings: read-out: IC50_Mean
[3] = miR-122 activators in hepatoma reporter cells, dose response, cell-based, Huh7 psiCHECK-miR122, Renilla luciferase, cherry-picked (AID 651956); assay type: functional;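 note: huh7 hepatoma cells stably carrying a psiCHECK-2 miR-122 sensor plasmid; renilla luciferase signal reporting endogenous miR-122 activity after 48 h compound exposure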
Escherichia coli [4] = test: microbe, parasite or virus in culture
Escherichia coli [5] = test: microbe, parasite or virus in culture; remark: listed apart in the source
Protein skinhead-1 = molecular target: T2, Protein skinhead-1 (Caenorhabditis elegans, UniProt P34707); assay type: functional
T2 sequence (P34707 whole entry): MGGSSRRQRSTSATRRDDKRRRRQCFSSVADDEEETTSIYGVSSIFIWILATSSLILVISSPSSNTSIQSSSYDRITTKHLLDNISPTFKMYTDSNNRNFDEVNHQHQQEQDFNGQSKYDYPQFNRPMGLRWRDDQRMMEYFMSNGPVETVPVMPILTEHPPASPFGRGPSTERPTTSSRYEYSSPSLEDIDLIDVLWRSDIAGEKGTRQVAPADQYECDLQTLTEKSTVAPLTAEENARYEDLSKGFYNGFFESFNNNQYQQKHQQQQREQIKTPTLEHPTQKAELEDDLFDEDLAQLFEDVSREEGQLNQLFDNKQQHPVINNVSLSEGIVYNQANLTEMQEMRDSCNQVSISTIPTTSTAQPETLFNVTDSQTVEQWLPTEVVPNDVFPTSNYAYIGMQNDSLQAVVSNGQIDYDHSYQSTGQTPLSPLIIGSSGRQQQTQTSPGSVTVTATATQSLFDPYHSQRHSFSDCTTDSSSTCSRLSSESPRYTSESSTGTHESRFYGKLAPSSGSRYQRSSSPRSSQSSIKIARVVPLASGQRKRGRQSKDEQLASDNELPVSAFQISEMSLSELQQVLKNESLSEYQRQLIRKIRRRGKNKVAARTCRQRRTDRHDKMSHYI

[6] = molecular target: T3, Sentrin-specific protease 8 (Homo sapiens, UniProt Q96LD8); assay type: functional
T3 sequence (Q96LD8 whole entry): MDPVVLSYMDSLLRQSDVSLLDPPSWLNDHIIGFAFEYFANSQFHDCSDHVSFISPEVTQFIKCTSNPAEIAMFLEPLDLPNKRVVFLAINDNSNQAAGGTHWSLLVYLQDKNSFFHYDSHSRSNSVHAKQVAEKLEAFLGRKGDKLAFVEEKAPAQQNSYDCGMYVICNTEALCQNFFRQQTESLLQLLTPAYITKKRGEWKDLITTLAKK

[7] = HEp-2 cell cytotoxicity, dose response, cytotoxicity control for RSV inhibitor project, HTS (AID 2410); assay type: functional; settings: human respiratory syncytial virus
[8] = molecular target: T3, Sentrin-specific protease 8; assay type: functional; remark: listed apart in the source
cells [9] = test: cells
Cytochrome P450 3A4 = Cytochrome P450 3A4 (Homo sapiens, UniProt P08684);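 note: CYP3A4 tested as one member of a cytochrome P450 panel screen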
Chain of Cytochrome P450 3A4 (P08684 whole entry): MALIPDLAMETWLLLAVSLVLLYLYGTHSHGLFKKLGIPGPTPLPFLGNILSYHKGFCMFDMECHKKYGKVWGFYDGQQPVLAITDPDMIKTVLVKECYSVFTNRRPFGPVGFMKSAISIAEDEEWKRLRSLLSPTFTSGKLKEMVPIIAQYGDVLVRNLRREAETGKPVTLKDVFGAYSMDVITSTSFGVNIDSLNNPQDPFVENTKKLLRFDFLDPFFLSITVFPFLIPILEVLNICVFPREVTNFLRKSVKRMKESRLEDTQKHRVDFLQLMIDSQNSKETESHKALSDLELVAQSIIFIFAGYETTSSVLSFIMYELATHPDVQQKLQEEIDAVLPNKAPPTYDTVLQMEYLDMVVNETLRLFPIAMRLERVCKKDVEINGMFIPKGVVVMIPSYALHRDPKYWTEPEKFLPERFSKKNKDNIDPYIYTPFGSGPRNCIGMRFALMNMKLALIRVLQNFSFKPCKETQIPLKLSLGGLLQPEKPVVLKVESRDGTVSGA

cells [10] = assay type: functional, cell-based
[11] = molecular target: T4, Trace amine-associated receptor 1 (Homo sapiens, UniProt Q96RJ0); test: Fluorescence-based cell-based high throughput dose response assay to identify agonists of the human trace amine associated receptor 1 (TAAR1).; assay type: functional
T4 sequence (Q96RJ0 whole entry): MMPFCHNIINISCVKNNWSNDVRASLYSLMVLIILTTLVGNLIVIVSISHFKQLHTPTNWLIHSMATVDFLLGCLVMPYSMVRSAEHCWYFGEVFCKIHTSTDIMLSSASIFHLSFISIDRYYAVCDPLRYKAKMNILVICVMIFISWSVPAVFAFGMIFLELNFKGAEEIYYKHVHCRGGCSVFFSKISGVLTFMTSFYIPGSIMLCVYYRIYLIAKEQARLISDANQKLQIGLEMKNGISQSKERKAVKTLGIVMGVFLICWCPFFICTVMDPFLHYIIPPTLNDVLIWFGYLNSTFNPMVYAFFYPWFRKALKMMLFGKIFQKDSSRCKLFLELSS

[12] = molecular target: T4, Trace amine-associated receptor 1; test: Counterscreen for agonists of the human trace amine associated receptor 1 (hTAAR1): Fluorescence-based cell-based high throughput dose response assay to identify hTAAR1 agonist that also desensitize TAAR1 receptor response.; assay type: functional
cells [13] = assay type: functional, cell-based; remark: listed apart in the source
Fatty acid synthase [14] = molecular target: T5, Fatty acid synthase (Homo sapiens, UniProt P49327); test: FAS thioesterase domain inhibitors, dose response, biochemical, endpoint fluorescence intensity, uHTS hits (AID 624327); assay type: functional;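 note: fluorescence from hydrolysis of an O-methyl fluorescein acyl ester substrate by the enzyme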
T5 sequence (P49327 whole entry, the tested form may be a part): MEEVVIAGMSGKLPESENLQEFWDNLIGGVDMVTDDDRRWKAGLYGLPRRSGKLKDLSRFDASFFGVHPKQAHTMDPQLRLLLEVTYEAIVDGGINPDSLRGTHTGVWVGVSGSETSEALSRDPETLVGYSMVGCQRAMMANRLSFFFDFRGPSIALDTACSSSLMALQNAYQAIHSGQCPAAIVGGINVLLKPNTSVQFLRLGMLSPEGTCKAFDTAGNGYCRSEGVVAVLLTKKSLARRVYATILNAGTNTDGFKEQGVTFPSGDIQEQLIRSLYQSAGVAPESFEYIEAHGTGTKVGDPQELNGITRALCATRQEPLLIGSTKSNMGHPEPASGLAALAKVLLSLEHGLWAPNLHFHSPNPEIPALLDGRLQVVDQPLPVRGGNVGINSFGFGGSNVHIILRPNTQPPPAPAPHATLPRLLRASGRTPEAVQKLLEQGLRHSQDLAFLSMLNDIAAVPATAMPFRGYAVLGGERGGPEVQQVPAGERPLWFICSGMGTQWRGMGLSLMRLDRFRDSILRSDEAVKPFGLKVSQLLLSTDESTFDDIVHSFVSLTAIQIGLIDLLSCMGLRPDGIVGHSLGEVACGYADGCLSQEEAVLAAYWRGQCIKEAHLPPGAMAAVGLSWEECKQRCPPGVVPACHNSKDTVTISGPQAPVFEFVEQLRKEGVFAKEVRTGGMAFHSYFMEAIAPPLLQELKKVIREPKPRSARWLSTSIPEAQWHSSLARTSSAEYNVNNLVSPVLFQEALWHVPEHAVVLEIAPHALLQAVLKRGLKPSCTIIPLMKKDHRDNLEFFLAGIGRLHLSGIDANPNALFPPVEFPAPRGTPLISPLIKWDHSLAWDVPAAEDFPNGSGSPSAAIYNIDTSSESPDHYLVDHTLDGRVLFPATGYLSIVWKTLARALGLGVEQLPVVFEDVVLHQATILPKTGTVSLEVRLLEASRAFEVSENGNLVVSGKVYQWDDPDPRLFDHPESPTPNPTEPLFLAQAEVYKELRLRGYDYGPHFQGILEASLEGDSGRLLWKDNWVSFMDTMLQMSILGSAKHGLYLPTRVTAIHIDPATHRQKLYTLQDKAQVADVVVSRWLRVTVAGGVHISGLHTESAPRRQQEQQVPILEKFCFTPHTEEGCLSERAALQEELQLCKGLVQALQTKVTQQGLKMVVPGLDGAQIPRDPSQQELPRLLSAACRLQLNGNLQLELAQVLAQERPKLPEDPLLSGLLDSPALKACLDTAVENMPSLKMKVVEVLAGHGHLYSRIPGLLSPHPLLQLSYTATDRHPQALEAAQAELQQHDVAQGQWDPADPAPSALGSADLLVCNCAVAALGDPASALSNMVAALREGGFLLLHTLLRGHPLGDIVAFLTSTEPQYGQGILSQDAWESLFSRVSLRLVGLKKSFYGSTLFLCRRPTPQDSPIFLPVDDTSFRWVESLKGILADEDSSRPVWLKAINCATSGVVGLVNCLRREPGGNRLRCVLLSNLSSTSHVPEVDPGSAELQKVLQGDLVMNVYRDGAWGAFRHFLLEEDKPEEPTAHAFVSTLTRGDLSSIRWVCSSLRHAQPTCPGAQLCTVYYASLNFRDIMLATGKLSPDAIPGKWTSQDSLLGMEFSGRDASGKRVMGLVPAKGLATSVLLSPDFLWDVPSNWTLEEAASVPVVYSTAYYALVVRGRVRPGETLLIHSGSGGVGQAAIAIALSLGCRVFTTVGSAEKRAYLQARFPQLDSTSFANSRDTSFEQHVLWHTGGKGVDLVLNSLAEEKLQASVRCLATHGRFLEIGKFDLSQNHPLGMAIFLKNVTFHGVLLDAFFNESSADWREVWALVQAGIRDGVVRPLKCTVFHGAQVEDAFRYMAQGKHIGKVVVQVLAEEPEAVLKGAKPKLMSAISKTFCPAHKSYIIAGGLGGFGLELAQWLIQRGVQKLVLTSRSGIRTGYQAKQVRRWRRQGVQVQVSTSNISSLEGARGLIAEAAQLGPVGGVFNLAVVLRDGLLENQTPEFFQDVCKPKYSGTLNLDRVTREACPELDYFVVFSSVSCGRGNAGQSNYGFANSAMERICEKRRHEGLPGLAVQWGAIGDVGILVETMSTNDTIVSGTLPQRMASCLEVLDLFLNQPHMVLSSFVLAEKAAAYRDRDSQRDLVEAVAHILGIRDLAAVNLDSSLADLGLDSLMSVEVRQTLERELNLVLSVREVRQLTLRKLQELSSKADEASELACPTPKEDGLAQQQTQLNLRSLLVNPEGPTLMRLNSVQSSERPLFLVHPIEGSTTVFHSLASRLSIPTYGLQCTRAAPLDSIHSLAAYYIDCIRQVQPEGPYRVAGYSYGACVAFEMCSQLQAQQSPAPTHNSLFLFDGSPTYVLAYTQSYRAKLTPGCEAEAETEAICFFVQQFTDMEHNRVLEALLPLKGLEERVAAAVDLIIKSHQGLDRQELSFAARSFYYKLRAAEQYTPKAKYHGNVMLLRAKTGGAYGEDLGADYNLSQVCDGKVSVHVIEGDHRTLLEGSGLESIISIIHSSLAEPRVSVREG

Fatty acid synthase [15] = molecular target: T5, Fatty acid synthase; test: FAS thioesterase domain inhibitors, dose response, biochemical, kinetic fluorescence intensity (AID 624326); assay type: functional;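 note: rate of fluorescence rise from hydrolysis of a fluorogenic O-methyl fluorescein ester substrate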
[16] = molecular target: T6, Heat shock factor protein 1 (Mus musculus, UniProt P38532); test: inhibition of MG132-induced HSE-luciferase signal, confirmation, cell-based, NIH3T3, luminescence, dose retest (AID 2382); assay type: functional;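 note: NIH3T3 fibroblasts with HSF1-driven luciferase reporter stressed by proteasome inhibitor MG132; luminescence from HSF1-driven luciferase expression after 8 hours of MG132 stress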
T6 sequence (P38532 whole entry): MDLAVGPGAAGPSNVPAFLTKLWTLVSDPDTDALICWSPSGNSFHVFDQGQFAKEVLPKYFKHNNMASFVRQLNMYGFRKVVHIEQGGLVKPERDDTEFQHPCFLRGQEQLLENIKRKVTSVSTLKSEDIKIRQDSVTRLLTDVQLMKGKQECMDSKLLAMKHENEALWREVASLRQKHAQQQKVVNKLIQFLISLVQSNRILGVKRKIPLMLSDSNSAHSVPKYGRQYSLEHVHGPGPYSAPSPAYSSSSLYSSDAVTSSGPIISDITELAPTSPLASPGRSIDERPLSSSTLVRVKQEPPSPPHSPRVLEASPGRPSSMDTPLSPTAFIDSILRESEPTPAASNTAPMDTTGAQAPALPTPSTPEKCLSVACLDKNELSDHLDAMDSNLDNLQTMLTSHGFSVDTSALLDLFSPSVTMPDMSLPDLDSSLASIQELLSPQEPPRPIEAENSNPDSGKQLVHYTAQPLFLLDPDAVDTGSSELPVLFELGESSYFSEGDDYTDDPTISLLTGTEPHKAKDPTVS

Cytochrome P450 2C9 = Cytochrome P450 2C9 (Homo sapiens, UniProt P11712)
Chain of Cytochrome P450 2C9 (P11712 whole entry, the tested form may be a part): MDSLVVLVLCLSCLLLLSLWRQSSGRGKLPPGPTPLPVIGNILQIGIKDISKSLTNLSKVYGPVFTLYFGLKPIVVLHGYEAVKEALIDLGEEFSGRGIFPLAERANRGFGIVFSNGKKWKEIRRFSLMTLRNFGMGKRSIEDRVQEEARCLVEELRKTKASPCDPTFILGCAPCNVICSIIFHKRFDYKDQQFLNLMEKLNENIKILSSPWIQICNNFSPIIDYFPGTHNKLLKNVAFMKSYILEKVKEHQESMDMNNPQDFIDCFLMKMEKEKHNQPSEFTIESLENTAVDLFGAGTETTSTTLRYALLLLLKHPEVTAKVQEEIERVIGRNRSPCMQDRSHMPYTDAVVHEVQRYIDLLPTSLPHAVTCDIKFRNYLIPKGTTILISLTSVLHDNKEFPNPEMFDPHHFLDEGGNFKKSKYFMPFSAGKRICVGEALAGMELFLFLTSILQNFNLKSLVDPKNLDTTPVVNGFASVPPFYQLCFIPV

[17] = CEM21 lymphoblast cell cytotoxicity, dose response, cytotoxicity control for viral fusion inhibitor project, CellTiter-Glo luminescence, cherry-picked (AID 652042); assay type: functional, cell-based;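 note: potency for signal decrease meaning cytotoxicity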

T1 sequence (P63165 whole entry): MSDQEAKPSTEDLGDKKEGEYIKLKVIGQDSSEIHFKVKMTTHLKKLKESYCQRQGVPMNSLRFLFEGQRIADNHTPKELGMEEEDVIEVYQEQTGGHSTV

Question: Which results are given for COc1ccc(-c2cc(=O)c3c(C)cc(O)cc3o2)cc1?
Answer: IC50 [1]: > 66.6 µM (inactive); IC50 [2]: 8.68 µM (active)

Question: For CN1C(=O)c2cc(NC(=O)Nc3cccc(Cl)c3)ccc2OC[C@H]2O[C@@H](CC(=O)NCCc3ccncc3)CC[C@H]21, which AC50 [3] is on record?
Answer: 31.4 µM (active)

Question: Which AC50 (Escherichia coli [4]) does the source give for O=C(NC1CC1)C1CCN(C2CCN(C(=O)Cc3ccc(F)cc3)CC2)CC1 here?
Answer: 26.8 µM (active)

Question: What about the AC50 (Escherichia coli [5]) of the same compound?
Answer: 50 µM (active)

Question: With Fc1ccccc1-c1nc(-c2ccncc2)no1 as the compound, how does the IC50 (Protein skinhead-1) read?
Answer: 25.1 µM (active)

Question: What does the source list for CCn1c2ccc(C)cc2c2nnc(NN)nc21?
Answer: IC50 [6]: 8.84 µM (active); CC50 [7]: 32.3 µM (active); IC50 [8]: > 100 µM (inactive); IC50 (cells [9]): 17.4 µM (active)

Question: For CSc1ccc(NC(=O)NCCCN2CCN(c3ccccc3F)CC2)cc1, which IC50 (Protein skinhead-1) is on record?
Answer: > 100 µM (inactive)

Question: What about the AC50 (Cytochrome P450 3A4) of the same compound?
Answer: inconclusive

Question: Which IC50 (cells [10]) does the source give for c1ccc2c(CC3=NCCN3)cccc2c1 [NAPHAZOLINE HYDROCHLORIDE] here?
Answer: > 29.9 µM (inactive)

Question: What about the EC50 [11] of the same compound?
Answer: 0.14 µM (active)

Question: What about the IC50 [12] of the same compound?
Answer: 1.15 µM (active)

Question: What about the EC50 (cells [13]) of the same compound?
Answer: > 29.9 µM (inactive)

Question: With COCCCNC(=O)CC1C[C@H](C(=O)N2CCOCC2)[C@@]2(CCC3CCCC3)c3[nH]c4ccc(OC)cc4c3CCN2C1=O (stereo partly drawn) as the compound, how does the IC50 (Fatty acid synthase [14]) read?
Answer: 11.5 µM (active)

Question: And the IC50 (Fatty acid synthase [15])?
Answer: 7.56 µM (active)

Question: With N=C(N)SCc1ccccc1Cl as the compound, how does the IC50 (cells [10]) read?
Answer: > 29.9 µM (inactive)

Question: What about the EC50 [11] of the same compound?
Answer: 1.42 µM (active)

Question: And the IC50 [12]?
Answer: 5.21 µM (active)

Question: And the EC50 [16]?
Answer: 121 µM (active)

Question: And the EC50 (cells [13])?
Answer: > 29.9 µM (inactive)

Question: Which AC50 (Cytochrome P450 2C9) does the source give for C=CCOc1c(Br)cc(CNc2ccc(NC(=O)C(C)C)c(OC)c2)cc1OC here?
Answer: 0.00562 µM (inconclusive)

Question: And the AC50 [17]?
Answer: 63.1 µM (active)

Question: With O=C(COc1cc([N+](=O)[O-])cc2cccnc12)NCCC1=CCCCC1 as the compound, how does the IC50 (Fatty acid synthase [14]) read?
Answer: 1.1 µM (active)

Question: And the IC50 (Fatty acid synthase [15])?
Answer: 0.778 µM (active)

Question: For O=C(Nc1cc2nn(-c3ccccc3)nc2cc1Cl)c1ccco1, which IC50 (Protein skinhead-1) is on record?
Answer: > 100 µM (inactive)

Reference: ChEMBL document CHEMBL1201862, “PubChem BioAssay data set” (2004)
